Assays:
[1] = molecular target: T1, Cathepsin K (Homo sapiens, UniProt P43235); assay: Cathepsin K inhibition assay (fluorogenic peptide substrate); selectivity ratio vs cathepsin S; assay type: biochemical; conditions: ratio of cathepsin K inhibition constant to cathepsin S inhibition constant; Table II
T1 sequence (P43235 115-329): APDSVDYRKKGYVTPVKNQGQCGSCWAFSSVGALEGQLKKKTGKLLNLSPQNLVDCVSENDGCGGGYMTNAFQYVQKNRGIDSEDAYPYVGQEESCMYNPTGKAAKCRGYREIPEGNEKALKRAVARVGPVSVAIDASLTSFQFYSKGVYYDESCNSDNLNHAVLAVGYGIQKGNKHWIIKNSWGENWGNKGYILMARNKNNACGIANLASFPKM
Outline: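 Fluorogenic kinetic assay, started with acetyl-Lys-His-Pro-Lys-aminocarbamoylcoumarin at 40 μM final, hydrolysis followed at ex 380/em 450 nm. Apparent inhibition constants from progress curves, converted to competitive inhibition constants. Selectivity expressed as isozyme inhibition constant divided by cathepsin S inhibition constant.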

[2] = molecular target: Cathepsin S (Homo sapiens, UniProt P25774); assay: Cathepsin S inhibition assay (fluorogenic peptide substrate); assay type: biochemical; conditions: Table II, compounds of Formula I; read-out: Ki Cat. S
Outline: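 Ki values come from nonlinear fitting of inhibited hydrolysis rates, taking free and total inhibitor concentrations as equal. Rates measured as rising fluorescence at 380/450 nm after reaction start with 50 μM final acetyl-HPVK-aminocarbamoylcoumarin.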

Chain of Cathepsin S (P25774 115-331, species assumed): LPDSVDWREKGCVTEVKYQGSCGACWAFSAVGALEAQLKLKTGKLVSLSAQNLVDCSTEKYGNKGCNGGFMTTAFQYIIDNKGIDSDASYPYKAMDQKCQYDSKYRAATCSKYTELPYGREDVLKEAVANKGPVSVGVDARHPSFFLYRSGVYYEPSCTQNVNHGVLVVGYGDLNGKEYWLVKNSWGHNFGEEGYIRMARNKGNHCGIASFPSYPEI

| Compound | Selectivity for Cat. S over Cat. K [1] | Ki [2] [nM] |
| --- | --- | --- |
| COc1ccc(NCCNC(=O)[C@H](CC2CCCCC2)NC(=O)c2ccc(C(F)(F)F)cc2F)cc1 [Compound 169, (S)-N-{2-Cyclohexyl-1-[2-(4-methoxy-phenylamino)-ethylcarbamoyl]-ethyl}-2-fluoro-4-trifluoromethyl-benzamide] | ++ (++, >100) | < 1000 |
| COc1ccc(NCCNC(=O)[C@H](Cc2ccc(C#N)cc2)NC(=O)c2cccc(C)c2)cc1 [Compound 240, (S)-N-{2-(4-Cyano-phenyl)-1-[2-(4-methoxy-phenylamino)-ethylcarbamoyl]-ethyl}-3-methyl-benzamide] | +++ (+++, >1000) | < 100 |
| O=C(N[C@@H](CC1CCCCC1)C(=O)NCCNc1ccc(OC(F)F)cc1)c1ccc(-c2cccc(C(F)(F)F)c2)o1 [Compound 10, N-((S)-1-(2-(4-(difluoromethoxy)phenylamino)ethylcarbamoyl)-2-cyclohexylethyl)-5-(3-(trifluoromethyl)phenyl)furan-2-carboxamide] | +++ (+++, >1000) | < 100 |
| O=C(N[C@@H](CC1CCCCC1)C(=O)NCCNc1ccc(OC(F)(F)F)cc1)c1onc2ccccc12 [Compound 59, Benzo[c]isoxazole-3-carboxylic acid (S)-{2-cyclohexyl-1-[2-(4-trifluoromethoxy-phenylamino)-ethylcarbamoyl]-ethyl}-amide] | ++ (++, >100) | < 1000 |
| COc1ccc(NCCNC(=O)C(NC(=O)c2cccc(C)c2)c2ccc(OC)cc2OC)cc1 (stereo not drawn) [Compound 225, N-{(2,4-Dimethoxy-phenyl)-[2-(4-methoxy-phenylamino)-ethylcarbamoyl]-methyl}-3-methyl-benzamide] | + (+, >10) | < 10000 |
| COc1ccc(NCCNC(=O)[C@H](CCC2CCCCC2)NC(=O)c2ccc3ncsc3c2)cc1 [Compound 137, (S)-Benzothiazole-6-carboxylic acid {3-cyclohexyl-1-[2-(4-methoxy-phenylamino)-ethylcarbamoyl]-propyl}-amide] | +++ (+++, >1000) | < 100 |
| COc1ccc(NCCNC(=O)[C@H](Cc2ccccc2)NC(=O)NCCc2ccccc2)cc1 [Compound 90, (S)-N-[2-(4-Methoxy-phenylamino)-ethyl]-2-(3-phenethyl-ureido)-3-phenyl-propionamide] | + (+, >10) | < 1000 |
| COc1ccc(NCCNC(=O)[C@H](CC2CCCCC2)NC(=O)c2ccc(C#N)cc2)cc1 [Compound 121, (S)-4-Cyano-N-{2-cyclohexyl-1-[2-(4-methoxy-phenylamino)-ethylcarbamoyl]-ethyl}-benzamide] | + (+, >10) | < 100 |
| COc1ccc(NCCNC(=O)[C@H](CC2CCCCC2)NC(=O)c2ccccc2F)cc1 [Compound 145, (S)-N-{2-Cyclohexyl-1-[2-(4-methoxy-phenylamino)-ethylcarbamoyl]-ethyl}-2-fluoro-benzamide] | +++ (+++, >1000) | < 100 |
| COc1ccc(NCCNC(=O)[C@H](Cc2ccccc2)NC(=O)c2cccc(C#N)c2)cc1 [Compound 55, (S)-3-Cyano-N-{1-[2-(4-methoxy-phenylamino)-ethylcarbamoyl]-2-phenyl-ethyl}-benzamide] | ++ (++, >100) | < 1000 |
| COc1ccc(NCCNC(=O)[C@H](CCC2CCCCC2)NC(=O)c2ccc(OCc3ccccc3)cc2)cc1 [Compound 129, (S)-4-Benzyloxy-N-{3-cyclohexyl-1-[2-(4-methoxy-phenylamino)-ethylcarbamoyl]-propyl}-benzamide] | + (+, >10) | < 10000 |
| COc1ccc(NCCNC(=O)[C@H](Cc2cc(F)cc(F)c2)NC(=O)c2cccc(C)c2)cc1 [Compound 230, (S)-N-{2-(3,5-Difluoro-phenyl)-1-[2-(4-methoxy-phenylamino)-ethylcarbamoyl]-ethyl}-3-methyl-benzamide] | +++ (+++, >1000) | < 100 |

— patent US7109243B2 (IRM LLC, priority 2003, dated 2006)
